Earlier results on 1 compound are cited in patent publication US9642863B2, “Methods for treating chronic or unresolvable pain and/or increasing the pain threshold in a subject and pharmaceutical compositions for use therein” (White Mountain Pharma, Inc., priority 2010, dated 2017).

The test system of data set [1] is female-to-male transsexuals. The conditions noted are these: doses of testosterone at or above the male reference range.
The conditions of data set [2]: genotypic females dosed with testosterone, 36 months.
Data set [3] has as its system rats. The conditions noted are these: treatment with testosterone.
Data set [4] deals with women with fibromyalgia. The conditions noted are these: female fibromyalgia patients, transdermal testosterone.
For data set [5], the system named is chronic pain subjects on maintenance opioids. The conditions noted are these: four patients, testosterone adjunctive to primary opioid therapy, anecdotal.

For the compound `C[C@]12CC[C@H]3[C@@H](CCC4=CC(=O)CC[C@@]43C)[C@@H]1CC[C@@H]2O` [testosterone], in data set [1], the side effects result was “develop hirsutism and male-like increased risk for cardiovascular disease and diabetes”. Also, in data set [2], the “stable serum total testosterone levels” value is recorded as “about 620+/−130 ng/dL”. Also, the “pain responses to the formalin test” value in data set [3] is on record as “decreased pain responses”. Besides, the “fibromyalgia muscle tender point pain” value in data set [4] was “significantly improve”. The quality of life entry in data set [5] is recorded as “improved quality of life”.
